The values below come from US20080311092A1, “Murine Stem Cells and Applications Thereof” (priority 2005, published 2008).

Entries after “also recorded” stand apart in the source; their conditions may differ. Read-outs that look alike come from different tables or passages of the source.

For test [1], the system named is B cell acute lymphoblastic leukaemia (B-ALL). To be noted: BCR-ABLp210 mouse model, not stem-cell targeted; cited from earlier work.
The test system of the next test is human CML. To be noted: cited from earlier work; for Outcome of treatment in human CML: humans.
For a further test, the system named is human lymphomas. Particulars: humans; cited from earlier work.
The next test concerns lung cancer. Put plainly: Doxorubicin treatment of Sca1/hKRAS CSC model lung cancer mice, survival study. Particulars: for Outcome of treatment in the lung cancer CSC mouse model: Sca1/hKRAS mice. Type of test: in vivo, mouse. Here is the method: DXR (doxorubicin) was dosed at 7 mg/kg. The administration scheme was every 7th day, 3 times—q7dx3—for a duration of 4-5 weeks. Drugs were dissolved in water and delivered intravenously. Water was used as placebo.

In a further test the test system is human lung cancer. Particulars: humans; cited from earlier work.
Test [2] concerns diffuse large B-cell lymphoma. Put plainly: Doxorubicin treatment of Sca1/BCL6 cancer stem cell model mice, cell counting. Type of test: in vivo, mouse. Here is the method:
DXR (doxorubicin) was dosed at 7 mg/kg. […] Drugs were dissolved in water and delivered intravenously. Water was used as placebo.

A further test relates to Sca1-positive cells. The test can be described thus: Ganciclovir treatment of Sca1-BCL6-IRES-HVTK mice. Type of test: in vivo, mouse. Here is the method:
(§1) Ganciclovir: stock solutions were prepared following the SIGMA indications. The regimen was 100 mg/kg/day by intraperitoneal injection for 14 days. The placebo was an equal volume of diluent water/normal saline.
CSC mouse cancer models (Sca1-HVTK-IRES-BCR-ABLp210 and Sca1-BCL6-IRES-HVTK mice) were used to address the question of whether the selective ablation of Sca1-positive cells is effective in the therapy of cancer.
(§2) The mice were treated either with ganciclovir (GCV) or with placebo, as described under materials and methods. For each mouse model, 60 mice were injected daily with ganciclovir, and 30 mice were used as a control and injected daily with saline (placebo).

Another test concerns CSC that express BCR-ABL. The test can be described thus: Ganciclovir treatment of PLy6-HSVtk-IRES-BCRABLp210 (Sca1-IRES-HVTK-BCR-ABL p210) mice. In kind it is in vivo, mouse. To be noted: for Disappearance of cancers / tumour burden on GCV treatment: PLy6-HSVtk-IRES-BCRABLp210 mice, 100% with tumours at start, 60 mice injected daily with GCV (100 mg/kg/day i.p.). The method, then:
PLy6-HSVtk-IRES-BCRABLp210 mice were used to test the effectiveness of GCV-induced cell death in CSC that express BCR-ABL. GCV, after preliminary testing, was administered at a dose of 100 mg/kg/day by i.p. injection for 14 days. This dose has been reported to kill cells expressing HSV-tk in transgenic mice (Bush TG. Cell 1998, 93: 189-201). Dosing started when the mice were leukaemic. A control group was given injections of normal saline.
as §1
30 mice were used as a control and were subjected daily with saline solution whereas the 60 remaining mice were injected daily with GCV as described in method section.
as §2

On to `Cc1ccc(NC(=O)c2ccc(CN3CCN(C)CC3)cc2)cc1Nc1nccc(-c2cccnc2)n1` [Gleevec™, imatinib], for which the “Outcome of treatment in conventional mouse B-ALL model” value in test [1] is on record as “cures the cancer”. Besides, the “Effect on leukaemic stem cells in humans” value with human CML (Michor F et al. Nature (2005)) is on record as “does not deplete leukaemic stem cells”. Moreover, the “Outcome of treatment in human CML” value is recorded as “only gives symptomatic relief; also recorded: typically relapse” in the test on human CML and “provides symptomatic relief” in the test with human CML (listed as Gleevec).

`COc1cccc2c1C(=O)c1c(O)c3c(c(O)c1C2=O)C[C@@](O)(C(=O)CO)C[C@@H]3O[C@H]1C[C@H](N)[C@H](O)[C@H](C)O1` [doxorubicin]: in the test with human lymphomas, the “Outcome of treatment in human lymphoma / DLBCL patients” value was “virtually all human lymphoma patients treated with doxorubicin relapse”. Also, in the test with lung cancer (CSC model lung cancer mice, doxorubicin 7 mg/kg i.v. q7dx3), the “Survival: none of the treated mice survived longer than” value is on record as at most 20 weeks. In addition, the entries for the “Outcome of treatment in the lung cancer CSC mouse model” value in the test on lung cancer and with lung cancer (listed as Doxorubicin) were “ineffective; also recorded: unsuccessful” and “also unsuccessful”, respectively. Besides, the “Outcome of treatment of human lung cancer” value with human lung cancer is “unsuccessful”. The “Outcome of treatment of diffuse large B-cell lymphoma in CSC mice” value in test [2] (Sca1/BCL6 CSC mouse model) is listed as “ineffective; also recorded: unsuccessful”. In test [2] (Sca1/BCL6 mice, 3-5 month course of doxorubicin treatment), the “Change in number of B cells” value was “decreased or increased slightly”. Moreover, the “Factor by which the number of CSC increased” value in test [2] (Sca1/BCL6 mice, over three months of doxorubicin treatment) is on record as 7-8.

For the compound `Nc1nc(O)c2ncn(COC(CO)CO)c2n1` [ganciclovir], the “Time to elimination of all tumours” value in the test on Sca1-positive cells (Sca1-BCL6-IRES-HVTK mice, 60 mice injected daily with ganciclovir) came out at 10 weeks. Moreover, the “Tumour recurrence during additional monitoring” value in the test on Sca1-positive cells (additional 11 weeks of monitoring) was “no tumour recurrence was observed”. In the test on CSC that express BCR-ABL (8 weeks of further monitoring), the “Tumour recurrence during further monitoring” value is “did not recur”. Further, the “Time of treatment after which tumours disappeared completely” value in the test on CSC that express BCR-ABL (60 Sca1-IRES-HVTK-BCR-ABL p210 mice treated with ganciclovir) is 8 weeks. Besides, the figures for the “Disappearance of cancers / tumour burden on GCV treatment” value with CSC that express BCR-ABL (listed as GCV) and in the test on CSC that express BCR-ABL (listed as Gancyclovir) were “cancers disappeared completely” and “complete reduction of tumour burden”, respectively. For the same compound, the “Tumour recurrence (CML and solid tumours) after GCV treatment” value with CSC that express BCR-ABL (additional 3 months of observation after cancers disappeared) was “no tumour recurrence was observed”.
